Results: ChEMBL document CHEMBL1129969 (J Med Chem, 1997)

What was measured:
Oxytocin receptor = target: T1, Oxytocin receptor (Rattus norvegicus, UniProt P70536); assay: Binding affinity against Oxytocin receptor was determined in rat uterine membrane using radioligand [3H]oxytocin; type: cell membranes
T1 sequence (P70536 whole entry): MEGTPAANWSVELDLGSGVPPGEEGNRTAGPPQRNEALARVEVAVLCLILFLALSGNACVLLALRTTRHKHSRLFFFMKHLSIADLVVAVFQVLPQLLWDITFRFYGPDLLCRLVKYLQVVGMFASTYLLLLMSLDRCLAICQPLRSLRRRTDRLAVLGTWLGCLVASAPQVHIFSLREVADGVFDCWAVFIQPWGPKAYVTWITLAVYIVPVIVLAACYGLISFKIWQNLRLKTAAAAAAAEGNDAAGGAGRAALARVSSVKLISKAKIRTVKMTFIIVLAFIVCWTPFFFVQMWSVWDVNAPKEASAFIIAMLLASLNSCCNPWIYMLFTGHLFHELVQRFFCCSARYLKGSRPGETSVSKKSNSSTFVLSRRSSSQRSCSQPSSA

Rattus norvegicus [1] = organism: Rattus norvegicus; assay: Biological activity was determined by uterotonic in vitro test in magnesium-free solution; type: functional
Rattus norvegicus [2] = assay: Biological activity was determined by uterotonic in vivo test using urethane-anesthetized rats (protracted action); type: functional
Rattus norvegicus [3] = organism: Rattus norvegicus; assay: Biological activity was determined by pressor test using pithed rat preparations (protracted action); type: functional
Rattus norvegicus [4] = organism: Rattus norvegicus; assay: Biological activity was determined by pressor test using pithed rat preparations; type: functional
Rattus norvegicus [5] = assay: Biological activity was determined by uterotonic in vivo test using urethane-anesthetized rats; type: functional

Ki (Oxytocin receptor) [nM]	SMILES	Activity (Rattus norvegicus [1]) [IU mg-1]	Activity (Rattus norvegicus [2]) [IU mg-1]	Activity (Rattus norvegicus [3]) [IU mg-1]	Activity (Rattus norvegicus [4]) [IU mg-1]	Activity (Rattus norvegicus [5]) [IU mg-1]
3	CC[C@H](C)[C@@H]1NC(=O)[C@H](Cc2ccc(O)cc2)NC(=O)CCSSSC[C@H](C(=O)N2CCC[C@H]2C(=O)N[C@@H](CC(C)C)C(=O)NCC(N)=O)NC(=O)[C@H](CC(N)=O)NC(=O)[C@H](CCC(N)=O)NC1=O [DEAMINOOXYTOCIN TRISULFIDE]	32.7	135	0.6	–	–
0.9	CC[C@H](C)[C@@H]1NC(=O)[C@H](Cc2ccc(O)cc2)NC(=O)CCSSC[C@@H](C(=O)N2CCC[C@H]2C(=O)N[C@@H](CC(C)C)C(=O)NCC(N)=O)NC(=O)[C@H](CC(N)=O)NC(=O)[C@H](CCC(N)=O)NC1=O [DEMOXYTOCIN]	576	541	–	5	–
6	CC[C@H](C)[C@@H]1NC(=O)[C@H](Cc2ccc(O)cc2)NC(=O)[C@@H](N)CSSSC[C@@H](C(=O)N2CCC[C@H]2C(=O)N[C@@H](CC(C)C)C(=O)NCC(N)=O)NC(=O)[C@H](CC(N)=O)NC(=O)[C@H](CCC(N)=O)NC1=O [OXYTOCIN TRISULFIDE]	–	–	–	–	–
–	CC[C@H](C)[C@@H]1NC(=O)[C@H](Cc2ccc(O)cc2)NC(=O)[C@@H](N)CSSC[C@@H](C(=O)N2CCC[C@H]2C(=O)N[C@@H](CC(C)C)C(=O)NCC(N)=O)NC(=O)[C@H](CC(N)=O)NC(=O)[C@H](CCC(N)=O)NC1=O [OXYTOCIN]	510	–	–	5	450
